Experimental findings from patent US9963456B2, “Pyrrolopyrimidine compound or salt thereof and compositions containing the pyrrolopyrimidine compound or salt thereof” (TAIHO PHARMACEUTICAL CO., LTD., priority 2014, dated 2018) are described below.

In the experiment the target is NAE (heterodimer of APPBP1 and UBA3) (Homo sapiens (Human), UniProt Q8TBC4). In words: Nedd8 conjugation inhibitory activity (AlphaScreen assay). To be noted: purified NAE, GST-UBC12, Biotin-Nedd8, ATP. It counts as biochemical.
NAE (heterodimer of APPBP1 and UBA3), sequence (Q8TBC4 whole entry): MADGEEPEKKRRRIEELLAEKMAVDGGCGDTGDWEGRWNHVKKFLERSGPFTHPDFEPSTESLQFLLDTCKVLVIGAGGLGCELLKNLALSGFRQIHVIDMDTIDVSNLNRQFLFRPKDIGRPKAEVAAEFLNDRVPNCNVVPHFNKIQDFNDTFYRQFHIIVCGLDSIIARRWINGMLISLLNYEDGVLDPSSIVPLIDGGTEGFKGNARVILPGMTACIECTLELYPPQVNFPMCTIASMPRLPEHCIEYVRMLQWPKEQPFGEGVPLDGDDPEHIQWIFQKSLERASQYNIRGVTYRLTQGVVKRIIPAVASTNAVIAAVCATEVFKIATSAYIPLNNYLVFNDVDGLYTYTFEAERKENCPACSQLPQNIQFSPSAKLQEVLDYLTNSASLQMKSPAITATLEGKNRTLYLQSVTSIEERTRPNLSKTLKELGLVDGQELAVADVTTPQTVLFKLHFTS
NAE (heterodimer of APPBP1 and UBA3), sequence (Q13564 whole entry partner): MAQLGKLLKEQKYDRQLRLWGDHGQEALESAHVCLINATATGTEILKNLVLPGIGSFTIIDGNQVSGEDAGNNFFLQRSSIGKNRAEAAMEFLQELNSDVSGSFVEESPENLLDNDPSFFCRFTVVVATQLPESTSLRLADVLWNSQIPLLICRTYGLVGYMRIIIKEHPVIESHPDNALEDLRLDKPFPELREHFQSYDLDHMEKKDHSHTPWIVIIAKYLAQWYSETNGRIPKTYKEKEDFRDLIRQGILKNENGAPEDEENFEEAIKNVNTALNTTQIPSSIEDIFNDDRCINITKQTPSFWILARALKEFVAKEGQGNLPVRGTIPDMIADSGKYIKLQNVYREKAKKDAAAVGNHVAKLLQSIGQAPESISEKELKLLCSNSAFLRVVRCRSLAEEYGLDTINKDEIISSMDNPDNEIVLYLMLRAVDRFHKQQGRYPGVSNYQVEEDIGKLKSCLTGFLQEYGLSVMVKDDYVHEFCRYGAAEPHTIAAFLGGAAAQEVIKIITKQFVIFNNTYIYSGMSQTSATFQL
Turning to `Nc1ncnc2c1c(C#Cc1ccnc3ccccc13)cn2[C@@H]1O[C@H](CNS(N)(=O)=O)[C@@H](O)[C@H]1O` [Example 8, 4-[2-[4-Amino-7-[(2R,3R,4S,5R)-3,4-dihydroxy-5-[(sulfamoylamino)methyl]tetrahydrofuran-2-yl]pyrrolo[2,3-d]pyrimidin-5-yl]ethynyl]quinoline], the IC50 – broadly, the concentration that gives 50% inhibition – is 0.029 µM.
In turn, `CSc1cccc(F)c1C#Cc1cn([C@@H]2O[C@H](CNS(N)(=O)=O)[C@@H](O)[C@H]2O)c2ncnc(N)c12` [Example 59, 4-Amino-7-[(2R,3R,4S,5R)-3,4-dihydroxy-5-[(sulfamoylamino)methyl]tetrahydrofuran-2-yl]-5-[2-(2-fluoro-6-methylsulfanyl-phenyl)ethynyl]pyrrolo[2,3-d]pyrimidine] displayed an IC50 of 0.0085 µM.
The figure for `Nc1ncnc2c1c(C#Cc1c(F)cc(N3CCCC(O)C3)cc1F)cn2[C@@H]1O[C@H](CNS(N)(=O)=O)[C@@H](O)[C@H]1O` (stereo partly drawn) [Example 38, 4-Amino-5-[2-[2,6-difluoro-4-(3-hydroxy-1-piperidyl)phenyl]ethynyl]-7-[(2R,3R,4S,5R)-3,4-dihydroxy-5-[(sulfamoylamino)methyl]tetrahydrofuran-2-yl]pyrrolo[2,3-d]pyrimidine] is 0.0035 µM; for `Nc1ncnc2c1c(C#Cc1ccccc1S(N)(=O)=O)cn2[C@@H]1O[C@H](CNS(N)(=O)=O)[C@@H](O)[C@H]1O` [Example 90, 2-[2-[4-Amino-7-[(2R,3R,4S,5R)-3,4-dihydroxy-5-[(sulfamoylamino)methyl]tetrahydrofuran-2-yl]pyrrolo[2,3-d]pyrimidin-5-yl]ethynyl]benzenesulfonamide] it is 0.0056 µM.
The figure for `CC(C)Oc1cccc(F)c1C#Cc1cn([C@@H]2O[C@H](CNS(N)(=O)=O)[C@@H](O)[C@H]2O)c2ncnc(N)c12` [Example 56, 4-Amino-7-[(2R,3R,4S,5R)-3,4-dihydroxy-5-[(sulfamoylamino)methyl]tetrahydrofuran-2-yl]-5-[2-(2-fluoro-6-isopropoxy-phenyl)ethynyl]pyrrolo[2,3-d]pyrimidine] is 0.0053 µM; for `Nc1ncnc2c1c(C#Cc1c(F)cc(N3CC[C@@H](F)C3)cc1F)cn2[C@@H]1C[C@H](CNS(N)(=O)=O)[C@@H](O)[C@H]1O` [Example 115, 4-Amino-5-[2-[2,6-difluoro-4-[(3R)-3-fluoropyrrolidin-1-yl]phenyl]ethynyl]-7-[(1R,2S,3R,4R)-2,3-dihydroxy-4-[(sulfamoylamino)methyl]cyclopentyl]pyrrolo[2,3-d]pyrimidine] it is 0.004 µM; for `Nc1ncnc2c1c(C#Cc1ccccc1OC(F)F)cn2[C@@H]1O[C@H](CNS(N)(=O)=O)[C@@H](O)[C@H]1O` [Example 18, 4-Amino-5-[2-[2-(difluoromethoxy)phenyl]ethynyl]-7-[(2R,3R,4S,5R)-3,4-dihydroxy-5-[(sulfamoylamino)methyl]tetrahydrofuran-2-yl]pyrrolo[2,3-d]pyrimidine] it is 0.027 µM.
To `Nc1ncnc2c1c(C#Cc1nccc3ccccc13)cn2[C@@H]1O[C@H](CNS(N)(=O)=O)[C@@H](O)[C@H]1O` [Example 11, 1-[2-[4-Amino-7-[(2R,3R,4S,5R)-3,4-dihydroxy-5-[(sulfamoylamino)methyl]tetrahydrofuran-2-yl]pyrrolo[2,3-d]pyrimidin-5-yl]ethynyl]isoquinoline] belongs 0.0078 µM; to `COc1ncc(F)c(C#Cc2cn([C@@H]3O[C@H](CNS(N)(=O)=O)[C@@H](O)[C@H]3O)c3ncnc(N)c23)c1F` [Example 80, 4-Amino-5-[2-(3,5-difluoro-2-methoxy-4-pyridyl)ethynyl]-7-[(2R,3R,4S,5R)-3,4-dihydroxy-5-[(sulfamoylamino)methyl]tetrahydrofuran-2-yl]pyrrolo[2,3-d]pyrimidine], 0.014 µM; to `N#Cc1ccccc1C#Cc1cn([C@@H]2O[C@H](CNS(N)(=O)=O)[C@@H](O)[C@H]2O)c2ncnc(N)c12` [Example 49, 4-Amino-5-[2-(2-cyanophenyl)ethynyl]-7-[(2R,3R,4S,5R)-3,4-dihydroxy-5-[(sulfamoylamino)methyl]tetrahydrofuran-2-yl]pyrrolo[2,3-d]pyrimidine], 0.018 µM.
The compound `Nc1ncnc2c1c(C#Cc1c(F)cc(OCn3cccn3)cc1F)cn2[C@@H]1C[C@H](CNS(N)(=O)=O)[C@@H](O)[C@H]1O` [Example 104, 4-Amino-5-[2-[2,6-difluoro-4-(pyrazol-1-ylmethoxy)phenyl]ethynyl]-7-[(1R,2S,3R,4R)-2,3-dihydroxy-4-[(sulfamoylamino)methyl]cyclopentyl]pyrrolo[2,3-d]pyrimidine] came in with an IC50 of 0.0089 µM.
As to `Cc1ccccc1-c1nc(-c2cn([C@H]3C[C@H](O)[C@@H](COS(N)(=O)=O)O3)c3ncnc(N)c23)cs1` [Example 139, [(2R,3S,5R)-5-[4-Amino-5-[2-(o-tolyl)thiazol-4-yl]pyrrolo[2,3-d]pyrimidin-7-yl]-3-hydroxy-tetrahydrofuran-2-yl]methyl sulfamate], the IC50 came to 0.017 µM.
The figure for `Nc1ncnc2c1c(C#Cc1cccc3c1S(=O)(=O)CCC3)cn2[C@@H]1C[C@H](CNS(N)(=O)=O)[C@@H](O)[C@H]1O` [Example 123, 4-Amino-7-[(1R,2S,3R,4R)-2,3-dihydroxy-4-[(sulfamoylamino)methyl]cyclopentyl]-5-[2-(1,1-dioxo-3,4-dihydro-2H-thiochromen-8-yl)ethynyl]pyrrolo[2,3-d]pyrimidine] is 0.0091 µM; for `CCS(=O)(=O)c1cc(N2CCCC2)cc(F)c1C#Cc1cn([C@@H]2O[C@H](CNS(N)(=O)=O)[C@@H](O)[C@H]2O)c2ncnc(N)c12` [Example 70, 4-Amino-7-[(2R,3R,4S,5R)-3,4-dihydroxy-5-[(sulfamoylamino)methyl]tetrahydrofuran-2-yl]-5-[2-(2-ethylsulfonyl-6-fluoro-4-pyrrolidin-1-yl-phenyl)ethynyl]pyrrolo[2,3-d]pyrimidine] it is 0.013 µM.
To `CCOc1cc(N2CCOCC2)cc(F)c1C#Cc1cn([C@@H]2O[C@H](CNS(N)(=O)=O)[C@@H](O)[C@H]2O)c2ncnc(N)c12` [Example 34, 4-[4-[2-[4-Amino-7-[(2R,3R,4S,5R)-3,4-dihydroxy-5-[(sulfamoylamino)methyl]tetrahydrofuran-2-yl]pyrrolo[2,3-d]pyrimidin-5-yl]ethynyl]-3-ethoxy-5-fluoro-phenyl]morpholine] belongs 0.024 µM; to `Nc1ncnc2c1c(C#Cc1c(F)cc(O)cc1F)cn2[C@@H]1O[C@H](CNS(N)(=O)=O)[C@@H](O)[C@H]1O` [Example 54, 4-Amino-5-[2-(2,6-difluoro-4-hydroxy-phenyl)ethynyl]-7-[(2R,3R,4S,5R)-3,4-dihydroxy-5-[(sulfamoylamino)methyl]tetrahydrofuran-2-yl]pyrrolo[2,3-d]pyrimidine], 0.0045 µM.
To `CCS(=O)(=O)c1cccc(F)c1C#Cc1cn([C@@H]2C[C@H](CNS(N)(=O)=O)[C@@H](O)[C@H]2O)c2ncnc(N)c12` [Example 142, 4-Amino-7-[(1R,2S,3R,4R)-2,3-dihydroxy-4-[(sulfamoylamino)methyl]cyclopentyl]-5-[2-(2-ethylsulfonyl-6-fluoro-phenyl)ethynyl]pyrrolo[2,3-d]pyrimidine] belongs 0.009 µM; to `Nc1ncnc2c1c(C#Cc1ccc3[nH]ncc3n1)cn2[C@@H]1O[C@H](CNS(N)(=O)=O)[C@@H](O)[C@H]1O` [Example 19, 4-Amino-7-[(2R,3R,4S,5R)-3,4-dihydroxy-5-[(sulfamoylamino)methyl]tetrahydrofuran-2-yl]-5-[2-(1H-pyrazolo[4,3-b]pyridin-5-yl)ethynyl]pyrrolo[2,3-d]pyrimidine], 0.028 µM.
Regarding `CCOc1cccc(F)c1C#Cc1cn([C@H]2C[C@H](O)[C@@H](CNS(N)(=O)=O)O2)c2ncnc(N)c12` [Example 127, 4-Amino-5-[2-(2-ethoxy-6-fluoro-phenyl)ethynyl]-7-[(2R,4S,5R)-4-hydroxy-5-[(sulfamoylamino)methyl]tetrahydrofuran-2-yl]pyrrolo[2,3-d]pyrimidine], the IC50 was 0.019 µM.
In turn, `Nc1ncnc2c1c(C#Cc1cccc3c1S(=O)(=O)CCC3)cn2[C@@H]1O[C@H](CNS(N)(=O)=O)[C@@H](O)[C@H]1O` [Example 83, 4-Amino-7-[(2R,3R,4S,5R)-3,4-dihydroxy-5-[(sulfamoylamino)methyl]tetrahydrofuran-2-yl]-5-[2-(1,1-dioxo-3,4-dihydro-2H-thiochromen-8-yl)ethynyl]pyrrolo[2,3-d]pyrimidine] returned an IC50 of 0.019 µM.
To `Nc1ncnc2c1c(C#Cc1c(F)cccc1OCC(F)(F)F)cn2[C@@H]1O[C@H](CNS(N)(=O)=O)[C@@H](O)[C@H]1O` [Example 61, 4-Amino-7-[(2R,3R,4S,5R)-3,4-dihydroxy-5-[(sulfamoylamino)methyl]tetrahydrofuran-2-yl]-5-[2-[2-fluoro-6-(2,2,2-trifluoroethoxy)phenyl]ethynyl]pyrrolo[2,3-d]pyrimidine] belongs 0.0038 µM; to `CCOc1cccc(OC)c1C#Cc1cn([C@@H]2O[C@H](CNS(N)(=O)=O)[C@@H](O)[C@H]2O)c2ncnc(N)c12` [Example 62, 4-Amino-7-[(2R,3R,4S,5R)-3,4-dihydroxy-5-[(sulfamoylamino)methyl]tetrahydrofuran-2-yl]-5-[2-(2-ethoxy-6-methoxy-phenyl)ethynyl]pyrrolo[2,3-d]pyrimidine], 0.016 µM.
`CCSc1ccccc1C#Cc1cn([C@@H]2O[C@H](CNS(N)(=O)=O)[C@@H](O)[C@H]2O)c2ncnc(N)c12` [Example 82, 4-Amino-7-[(2R,3R,4S,5R)-3,4-dihydroxy-5-[(sulfamoylamino)methyl]tetrahydrofuran-2-yl]-5-[2-(2-ethylsulfanylphenyl)ethynyl]pyrrolo[2,3-d]pyrimidine] returned an IC50 of 0.01 µM.
As to `NC(=O)c1cccc(COc2ccc(C#Cc3cn([C@@H]4O[C@H](CNS(N)(=O)=O)[C@@H](O)[C@H]4O)c4ncnc(N)c34)cc2)c1` [Example 91, 3-[[4-[2-[4-Amino-7-[(2R,3R,4S,5R)-3,4-dihydroxy-5-[(sulfamoylamino)methyl]tetrahydrofuran-2-yl]pyrrolo[2,3-d]pyrimidin-5-yl]ethynyl]phenoxy]methyl]benzamide], it took 0.018 µM to reach half-maximal inhibition (IC50).
